Experimental data: patent publication EP0193355B1, “Analgesic composition” (ELI LILLY AND COMPANY, priority 1985, dated 1986)
Where a name gives a salt, the structure may show the parent alone.

System: Mouse Writhing
Assay: mouse writhing assay (acetic acid-induced writhing)
Assay type: in vivo, albino male mice
Conditions: for Percent Inhibition of Writhing: Codeine Sulfate 10 mg/kg + Saline, oral; for Codeine Sulfate Induced Inhibition of Mouse Writhing ED₅₀: codeine sulfate subcutaneous, writhing assessed 30 minutes later
Text: Writhing, which is characterized by contraction of the abdominal musculature, extension of the hindlegs, and rotation of the trunk, was induced in albino male mice. The extent to which writhing is reduced following administration of a test compound is an indication of the analgesic activity of that compound.
Mice, weighing 18-24 grams, were fasted overnight and given the test compounds by gavage or subcutaneously. Writhing was then induced by the intraperitoneal administration of acetic acid (0.55 to 0.60 percent). Each treatment group consisted of five mice. The total number of writhes for the treatment group was determined during a 10-minute observation period starting five minutes after acetic acid administration. […] The results in the mouse writhing assay are presented either as the effective dose in mg/kg of the respective test compound required to inhibit induced writhing in the test animals by fifty percent (ED₅₀), or as the percent inhibition of writhing at the particular dose of the test compound administered.

Row | Compound | Percent Inhibition of Writhing (30 minutes after administration) | Percent Inhibition of Writhing (60 minutes after administration) | Percent Inhibition of Writhing (120 minutes after administration) | Percent Inhibition of Writhing (180 minutes after administration) | Percent Inhibition of Writhing (240 minutes after administration) | Percent Inhibition of Mouse Writhing (Codeine Sulfate 10 mg/kg oral, Fluoxetine Hydrochloride 0 mg/kg, writhing assessed 60 minutes later) | inhibition at 10 mg/kg (Mus musculus, 1 h, Codeine Sulfate 10 mg/kg oral, Fluoxetine Hydrochloride 0 mg/kg, writhing assessed 60 minutes later, read-out: Percent Inhibition of Mouse Writhing) | Codeine Sulfate Inhibition of Mouse Writhing ED₅₀ (codeine sulfate oral, alone (Fluoxetine Hydrochloride 0), writhing assessed 60 minutes later) | Codeine Sulfate Inhibition of Mouse Writhing ED₅₀ (codeine sulfate oral, simultaneously with Fluoxetine Hydrochloride 20 mg/kg oral, writhing assessed 60 minutes later) | Codeine Sulfate Induced Inhibition of Mouse Writhing ED₅₀ (alone (Fluoxetine Hydrochloride 0 mg/kg s.c.)) | Codeine Sulfate Induced Inhibition of Mouse Writhing ED₅₀ (simultaneously with Fluoxetine Hydrochloride 20 mg/kg s.c.) | Codeine Sulfate Inhibition of Mouse Writhing ED₅₀ (pretreatment Fluoxetine Hydrochloride (20 mg/kg) oral three hours before, codeine sulfate oral 15 minutes prior to assessment of writhing) | Codeine Sulfate Inhibition of Mouse Writhing ED₅₀ (pretreatment Saline oral three hours before, codeine sulfate oral 15 minutes prior to assessment of writhing) | ED₅₀ of codeine sulfate alone relative to the amount needed when 20 mg/kg of fluoxetine hydrochloride was concomitantly administered (subcutaneous, 30 minutes prior to the assessment of mouse writhing) | analgesic activity (fluoxetine hydrochloride alone, doses up to 160 mg/kg, 30-180 minutes before writhing was induced)
1 | COc1ccc2c3c1O[C@H]1[C@@H](O)C=C[C@H]4[C@@H](C2)N(C)CC[C@@]341 [Codeine Sulfate, codeine sulfate] | 40% | 38% | 37% | 35% | 22% | no inhibition | 0% | 27.0 mg/kg | 15.4 mg/kg | 9.8 mg/kg | 2.8 mg/kg | 9.4 mg/kg | 18.6 mg/kg | 3.5 times | –
2 | CNCCC(Oc1ccc(C(F)(F)F)cc1)c1ccccc1 (stereo not drawn) [fluoxetine hydrochloride, 3-(4-trifluoromethylphenoxy)-N-methyl-3-phenylpropylamine] | – | – | – | – | – | – | – | – | – | – | – | – | – | – | devoid of analgesic activity
